pIC50: −log10 of the molar value.

The values that follow come from patent US20260207578A1, “COMPOUND BASED ON SULFUR/OXYGEN SUBSTITUTED GLUTARIMIDE-BASED ISOINDOLINONE SKELETON AND USE THEREOF” (Gluetacs Therapeutics (Shanghai) Co., LTD., priority 2022, published 2026).

The target of one experiment is T1, GSPT1 (Homo sapiens, UniProt P15170+Q96SW2).
T1 construct: endogenous in cells; host or cells: human PBMCs (Milecell Biotechnologies)
Description: Western-blot assay, substrate protein in hPBMCs. The experiment is classed as cell-based. The settings on record: hPBMC cells, 24 hours, tested at 50 nM and 500 nM, table does not say which. The method in brief:
(§1)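 Thawed hPBMCs, 1×10^6 cells/mL; 24 h compound; RIPA + phosphatase inhibitor lysis, BCA-normalised loading, SDS-PAGE, NC transfer, immunodetection. Bands vs internal control → % remaining; DC50 = concentration at 50% of DMSO band intensity.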

For another experiment, the target named is T2, IKZF3 (Homo sapiens, UniProt Q96SW2+Q9UKT9).
T2 construct: endogenous in cells; host or cells: human PBMCs (Milecell Biotechnologies)
T2 sequence (Q9UKT9 whole entry): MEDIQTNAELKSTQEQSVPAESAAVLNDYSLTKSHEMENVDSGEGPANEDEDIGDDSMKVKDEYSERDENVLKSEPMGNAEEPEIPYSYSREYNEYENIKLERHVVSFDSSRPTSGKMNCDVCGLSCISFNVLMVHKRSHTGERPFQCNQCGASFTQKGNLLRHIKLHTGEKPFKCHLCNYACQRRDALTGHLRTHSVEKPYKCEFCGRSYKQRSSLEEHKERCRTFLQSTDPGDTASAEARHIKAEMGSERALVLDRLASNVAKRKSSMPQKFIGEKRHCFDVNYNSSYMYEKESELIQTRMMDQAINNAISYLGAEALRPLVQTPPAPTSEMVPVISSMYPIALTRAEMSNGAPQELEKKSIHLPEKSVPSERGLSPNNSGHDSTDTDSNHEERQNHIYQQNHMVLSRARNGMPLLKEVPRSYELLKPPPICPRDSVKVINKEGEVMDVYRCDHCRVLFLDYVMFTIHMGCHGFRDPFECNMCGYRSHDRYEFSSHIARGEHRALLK
T2 sequence (Q96SW2 whole entry): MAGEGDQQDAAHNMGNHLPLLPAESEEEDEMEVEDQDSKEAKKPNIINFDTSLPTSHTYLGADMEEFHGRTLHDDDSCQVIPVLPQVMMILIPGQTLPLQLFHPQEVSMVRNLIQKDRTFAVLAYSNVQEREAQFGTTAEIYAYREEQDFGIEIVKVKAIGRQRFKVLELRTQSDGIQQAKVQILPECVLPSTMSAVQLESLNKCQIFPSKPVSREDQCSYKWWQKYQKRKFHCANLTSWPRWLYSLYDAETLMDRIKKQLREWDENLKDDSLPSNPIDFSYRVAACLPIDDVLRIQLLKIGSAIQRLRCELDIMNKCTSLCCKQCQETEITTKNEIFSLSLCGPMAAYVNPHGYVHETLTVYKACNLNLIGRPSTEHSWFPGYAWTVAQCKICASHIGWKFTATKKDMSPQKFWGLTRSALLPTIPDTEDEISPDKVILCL
T2 sequence (Q16531 whole entry partner): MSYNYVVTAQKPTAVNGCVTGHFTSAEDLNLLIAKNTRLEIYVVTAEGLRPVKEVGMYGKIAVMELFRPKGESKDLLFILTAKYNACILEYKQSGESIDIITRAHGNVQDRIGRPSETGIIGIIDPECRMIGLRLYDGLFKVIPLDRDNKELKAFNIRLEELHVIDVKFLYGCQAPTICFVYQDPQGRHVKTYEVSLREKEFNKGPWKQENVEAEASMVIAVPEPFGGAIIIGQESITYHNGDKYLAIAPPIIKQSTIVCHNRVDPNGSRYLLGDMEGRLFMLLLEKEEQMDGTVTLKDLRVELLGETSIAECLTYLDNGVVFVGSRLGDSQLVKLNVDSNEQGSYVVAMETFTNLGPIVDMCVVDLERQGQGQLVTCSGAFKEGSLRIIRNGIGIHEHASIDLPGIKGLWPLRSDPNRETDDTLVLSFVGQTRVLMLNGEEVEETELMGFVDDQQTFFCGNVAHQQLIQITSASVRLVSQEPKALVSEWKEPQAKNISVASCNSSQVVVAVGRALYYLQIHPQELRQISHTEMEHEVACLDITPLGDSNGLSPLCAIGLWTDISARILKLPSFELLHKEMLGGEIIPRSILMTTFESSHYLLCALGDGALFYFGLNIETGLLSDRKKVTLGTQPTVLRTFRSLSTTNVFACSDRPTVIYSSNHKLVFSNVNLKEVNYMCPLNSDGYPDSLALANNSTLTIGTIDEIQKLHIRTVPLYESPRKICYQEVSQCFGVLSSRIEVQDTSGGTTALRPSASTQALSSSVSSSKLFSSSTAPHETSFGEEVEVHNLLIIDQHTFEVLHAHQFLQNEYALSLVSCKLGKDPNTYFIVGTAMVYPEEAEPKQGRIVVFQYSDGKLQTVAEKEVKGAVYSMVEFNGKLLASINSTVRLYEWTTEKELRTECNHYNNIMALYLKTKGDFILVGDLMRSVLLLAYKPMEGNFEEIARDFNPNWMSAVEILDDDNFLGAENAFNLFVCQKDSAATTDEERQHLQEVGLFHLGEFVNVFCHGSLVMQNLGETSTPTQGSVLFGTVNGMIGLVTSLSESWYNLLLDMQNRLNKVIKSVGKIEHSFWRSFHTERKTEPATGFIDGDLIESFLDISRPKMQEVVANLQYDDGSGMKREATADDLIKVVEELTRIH
The experiment can be described thus: Western-blot assay, substrate protein in hPBMCs. The settings on record: hPBMC cells, 24 hours, tested at 50 nM and 500 nM, table does not say which. The experiment is classed as cell-based. Put shortly:
(§2)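 hPBMCs (1×10^6 cells/mL) exposed 24 h to compound at 50 nM and 500 nM, lysed, and probed by Western blot. Band grayscale normalized to internal control gives % protein remaining versus DMSO; DC50 from concentration-response fit at half DMSO band intensity.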

The subject of another experiment is Daudi. Description: Half inhibitory concentration (IC50) against tumor cells, Cell Counting Kit-8. The experiment is classed as cell-based. The settings on record: Homo sapiens, CCK-8, 96 h treatment, read-out: inhibitory activity (IC50, nM) against tumor cells proliferation. On the procedure: (§3) The tumor cells used herein were cultured in a cell culture medium listed in table A at 37° C. in an incubator with 5% CO2.
(§4) After the cells were treated with the compounds of the present disclosure for a period of time, the cell viability detection reagent was added to the culture medium for cell viability assessment according to the instructions provided with the CCK-8 kit. […] The growth inhibition of the compounds of the present disclosure on cells was plotted by Prism Graphpad software, and the IC50 values of the compounds of the present disclosure were calculated therefrom.

The next experiment concerns CCRF-CEM. The experiment is described as above. The experiment is classed as cell-based. The settings on record: Homo sapiens, CCK-8, 96 h treatment, read-out: inhibitory activity (IC50, nM) against tumor cells proliferation. The protocol: as §3, §4
The target of a further experiment is T3, IKZF2 (Homo sapiens, UniProt Q96SW2+Q9UKS7).
T3 construct: endogenous in cells; host or cells: human PBMCs (Milecell Biotechnologies)
T3 sequence (Q9UKS7 whole entry): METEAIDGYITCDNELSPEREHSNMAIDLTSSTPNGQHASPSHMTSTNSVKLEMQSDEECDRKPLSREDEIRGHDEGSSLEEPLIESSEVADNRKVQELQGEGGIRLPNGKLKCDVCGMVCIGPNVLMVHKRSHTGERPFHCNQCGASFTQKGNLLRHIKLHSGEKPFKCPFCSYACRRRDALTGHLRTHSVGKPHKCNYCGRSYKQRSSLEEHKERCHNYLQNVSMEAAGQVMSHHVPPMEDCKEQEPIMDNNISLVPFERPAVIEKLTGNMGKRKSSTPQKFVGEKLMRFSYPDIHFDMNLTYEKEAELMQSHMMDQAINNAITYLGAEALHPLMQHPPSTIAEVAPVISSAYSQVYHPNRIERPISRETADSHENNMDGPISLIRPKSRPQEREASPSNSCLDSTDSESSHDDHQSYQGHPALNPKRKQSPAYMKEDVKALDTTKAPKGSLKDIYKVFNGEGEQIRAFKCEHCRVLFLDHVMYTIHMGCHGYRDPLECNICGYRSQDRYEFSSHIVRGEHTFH
T3 sequence (Q96SW2 whole entry): as the sequence (Q96SW2 whole entry) above
T3 sequence (Q16531 whole entry partner): as the sequence (Q16531 whole entry partner) above
Description: Western-blot assay, substrate protein in hPBMCs. The experiment is classed as cell-based. The settings on record: hPBMC cells, 24 hours, tested at 50 nM and 500 nM, table does not say which. The method in brief:
as §1

Another experiment addresses T4, CK1α (Homo sapiens, UniProt P48729+Q96SW2).
T4 construct: endogenous in cells; host or cells: human PBMCs (Milecell Biotechnologies)
Description: Western-blot assay, substrate protein in hPBMCs. The settings on record: hPBMC cells, 24 hours, tested at 50 nM and 500 nM, table does not say which. The experiment is classed as cell-based. The method in brief: as §1

A further experiment concerns the target T5, IKZF1 (Homo sapiens, UniProt Q13422+Q96SW2).
T5 construct: endogenous in cells; host or cells: human PBMCs (Milecell Biotechnologies)
The experiment can be described thus: Western-blot assay, substrate protein in hPBMCs. The experiment is classed as cell-based. The settings on record: hPBMC cells, 24 hours, tested at 50 nM and 500 nM, table does not say which. Put shortly:
as §2

In the next experiment the test system is JEKO-1. The experiment can be described thus: Half inhibitory concentration (IC50) against tumor cells, Cell Counting Kit-8. The experiment is classed as cell-based. The settings on record: Homo sapiens, CCK-8, 96 h treatment, read-out: inhibitory activity (IC50, nM) against tumor cells proliferation. The protocol:
as §3, §4

Another experiment concerns THP-1. The description is as above. The experiment is classed as cell-based. The settings on record: Homo sapiens, CCK-8, 96 h treatment, read-out: inhibitory activity (IC50, nM) against tumor cells proliferation. On the procedure: as §3, §4
For a further experiment, the system named is MDA-MB-231. Described as above. The experiment is classed as cell-based. The settings on record: Homo sapiens, CCK-8, 96 h treatment, read-out: inhibitory activity (IC50, nM) against tumor cells proliferation. The protocol: as §3, §4
In a further experiment the test system is CAL-62. The description is as above. The settings on record: Homo sapiens, CCK-8, 96 h treatment, read-out: inhibitory activity (IC50, nM) against tumor cells proliferation. The experiment is classed as cell-based. On the procedure: as §3, §4
The test system of another experiment is MM.1S. The experiment is described as above. The experiment is classed as cell-based. The settings on record: Homo sapiens, MM1.S, CCK-8, 96 h treatment, read-out: inhibitory activity (IC50, nM) against tumor cells proliferation. The protocol: as §3, §4
A further experiment relates to Kasumi-1. The experiment is described as above. The experiment is classed as cell-based. The settings on record: Homo sapiens, CCK-8, 96 h treatment, read-out: inhibitory activity (IC50, nM) against tumor cells proliferation. The protocol:
as §3, §4

The subject of a further experiment is MM.1R. The description is as above. The settings on record: Homo sapiens, CCK-8, 96 h treatment, read-out: inhibitory activity (IC50, nM) against tumor cells proliferation. The experiment is classed as cell-based. The protocol: as §3, §4
For the next experiment, the system named is MV-4-11. Described as above. The experiment is classed as cell-based. The settings on record: Homo sapiens, MV4-11, CCK-8, 96 h treatment, read-out: inhibitory activity (IC50, nM) against tumor cells proliferation. On the procedure:
as §3, §4

Experiment [1] deals with T6, human Cereblon WT GST-tagged protein (Homo sapiens, UniProt Q96SW2).
T6 construct: purchased CISBIO 64BDCRBNPEH
T6 sequence (Q96SW2 whole entry): as the sequence (Q96SW2 whole entry) above
The experiment can be described thus: CRBN-binding affinity, HTRF (CEREBLON BINDING kit). The settings on record: displacement of Thalidomide-Re reagent, 3 hours at room temperature. The method in brief:
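Compounds displace a thalidomide-Re tracer from GST-tagged human Cereblon WT, detected with an Eu-labelled anti-GST antibody by time-resolved fluorescence. Signal at 620 nm was normalised against solvent and blank controls.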

Another experiment deals with T7, Wee1 (Homo sapiens, UniProt P30291+Q96SW2).
T7 construct: endogenous in cells; host or cells: human PBMCs (Milecell Biotechnologies)
T7 sequence (P30291 whole entry): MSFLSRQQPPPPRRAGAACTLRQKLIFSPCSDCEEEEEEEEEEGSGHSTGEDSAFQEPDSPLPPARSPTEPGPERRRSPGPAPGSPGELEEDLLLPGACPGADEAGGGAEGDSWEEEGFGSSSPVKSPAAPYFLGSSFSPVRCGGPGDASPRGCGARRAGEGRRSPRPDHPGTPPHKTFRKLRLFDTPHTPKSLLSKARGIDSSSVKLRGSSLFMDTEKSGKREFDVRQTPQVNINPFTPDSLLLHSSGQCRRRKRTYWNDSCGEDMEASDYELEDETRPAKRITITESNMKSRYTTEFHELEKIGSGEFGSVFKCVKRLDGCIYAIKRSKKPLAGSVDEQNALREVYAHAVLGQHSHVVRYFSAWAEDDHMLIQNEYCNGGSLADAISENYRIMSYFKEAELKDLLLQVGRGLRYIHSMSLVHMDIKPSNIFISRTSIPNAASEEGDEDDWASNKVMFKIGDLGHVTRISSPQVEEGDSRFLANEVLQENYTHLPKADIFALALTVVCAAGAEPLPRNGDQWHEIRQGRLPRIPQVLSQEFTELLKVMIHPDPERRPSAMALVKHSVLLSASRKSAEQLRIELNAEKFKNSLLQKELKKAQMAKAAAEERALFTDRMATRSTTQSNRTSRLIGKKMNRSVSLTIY
T7 sequence (Q96SW2 whole entry): as the sequence (Q96SW2 whole entry) above
T7 sequence (Q16531 whole entry partner): as the sequence (Q16531 whole entry partner) above
The experiment can be described thus: Western-blot assay, substrate protein in hPBMCs. The experiment is classed as cell-based. The settings on record: hPBMC cells, 24 hours, tested at 50 nM and 500 nM, table does not say which. The method in brief: as §1

T1 sequence (P15170 whole entry): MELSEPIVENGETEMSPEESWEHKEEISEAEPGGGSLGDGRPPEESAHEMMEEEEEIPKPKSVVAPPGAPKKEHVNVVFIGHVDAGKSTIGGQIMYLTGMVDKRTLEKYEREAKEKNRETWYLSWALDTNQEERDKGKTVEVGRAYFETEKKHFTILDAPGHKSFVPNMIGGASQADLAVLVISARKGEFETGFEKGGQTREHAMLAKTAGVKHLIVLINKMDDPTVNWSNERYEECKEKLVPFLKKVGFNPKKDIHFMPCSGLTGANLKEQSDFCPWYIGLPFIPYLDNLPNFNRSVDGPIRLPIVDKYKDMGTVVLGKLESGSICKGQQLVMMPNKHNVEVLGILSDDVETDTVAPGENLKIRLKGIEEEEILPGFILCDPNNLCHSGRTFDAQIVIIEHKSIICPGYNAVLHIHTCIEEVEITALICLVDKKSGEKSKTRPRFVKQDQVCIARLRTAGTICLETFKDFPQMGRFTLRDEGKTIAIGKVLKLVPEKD
T1 sequence (Q96SW2 whole entry): as the sequence (Q96SW2 whole entry) above
T1 sequence (Q16531 whole entry partner): as the sequence (Q16531 whole entry partner) above
T5 sequence (Q13422 whole entry): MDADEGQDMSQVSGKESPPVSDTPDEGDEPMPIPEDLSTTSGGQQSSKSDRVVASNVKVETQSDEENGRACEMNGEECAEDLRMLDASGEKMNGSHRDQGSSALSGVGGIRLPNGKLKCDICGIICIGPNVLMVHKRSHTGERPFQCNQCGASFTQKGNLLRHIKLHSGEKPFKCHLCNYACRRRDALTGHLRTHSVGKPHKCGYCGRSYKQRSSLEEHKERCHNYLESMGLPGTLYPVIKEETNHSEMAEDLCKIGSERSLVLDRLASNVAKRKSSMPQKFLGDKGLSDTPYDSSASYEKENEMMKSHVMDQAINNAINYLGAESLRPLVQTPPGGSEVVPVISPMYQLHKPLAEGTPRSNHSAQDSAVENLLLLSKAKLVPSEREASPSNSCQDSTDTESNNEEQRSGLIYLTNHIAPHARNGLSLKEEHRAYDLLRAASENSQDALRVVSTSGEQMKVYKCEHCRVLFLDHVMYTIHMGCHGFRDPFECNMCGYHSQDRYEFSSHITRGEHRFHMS
T5 sequence (Q96SW2 whole entry): as the sequence (Q96SW2 whole entry) above
T5 sequence (Q16531 whole entry partner): as the sequence (Q16531 whole entry partner) above

Regarding `O=C1CCC(N2Cc3cc(SC4CCN(Cc5ccccc5-c5ccc(Cl)cc5)CC4)ccc3C2=O)C(=O)N1` (stereo not drawn) [GT-03357, 3-(5-((1-((4′-chloro-[1,1′-biphenyl]-2-yl)methyl)piperidin-4-yl)thio)-1-oxoisoindolin-2-yl)piperidine-2,6-dione], the “substrate protein remaining %” value at GSPT1 and at IKZF3 was “A (0%≤ substrate protein remaining % ≤80%)” in each case. Besides, the IC50 in the experiment with Daudi and in the experiment on CCRF-CEM was 100 to 500 nM in each case.

Turning to `O=C1CCC(N2Cc3cc(SC4CN(Cc5ccccc5-c5ccc(Cl)cc5)C4)ccc3C2=O)C(=O)N1` (stereo not drawn) [GT-03360, 3-(5-((1-((4′-chloro-[1,1′-biphenyl]-2-yl)methyl)azetidin-3-yl)thio)-1-oxoisoindolin-2-yl)piperidine-2,6-dione], the “substrate protein remaining %” value on IKZF2, on GSPT1, on CK1α, on IKZF1 and on IKZF3 was “A (0%≤ substrate protein remaining % ≤80%)” in each case. Besides, the IC50 in the experiment with JEKO-1 was 100 to 500 nM; with THP-1, 10 to 50 nM; with MDA-MB-231, 100 to 500 nM; with CAL-62 it was 50 to 100 nM; in the experiment with MM.1S it was 100 to 500 nM; in the experiment with Daudi, less than 1 nM. The IC50 in the experiment on CCRF-CEM was 50 to 100 nM; with Kasumi-1, 100 to 500 nM; with MM.1R, 50 to 100 nM; in the experiment with MV-4-11 it was 100 to 500 nM. The compound further showed a pIC50 in experiment [1] greater than 6.30.

Turning to `O=C1CCC(N2Cc3cc(OC4CN(Cc5ccccc5-c5ccc(Cl)cc5)C4)ccc3C2=O)C(=O)N1` (stereo not drawn) [GT-03363, 3-(5-((1-((4′-chloro-[1,1′-biphenyl]-2-yl)methyl)azetidin-3-yl)oxy)-1-oxoisoindolin-2-yl)piperidine-2,6-dione], the “substrate protein remaining %” value on GSPT1, at Wee1, on CK1α, at IKZF1 and at IKZF3 was “A (0%≤ substrate protein remaining % ≤80%)” each time. The IC50 in the experiment on JEKO-1 and in the experiment on CCRF-CEM was 100 to 500 nM each time. The negative logarithm of the IC50 (pIC50) in [1] is 6.00 to 6.30.

Consider `O=C1CCC(N2Cc3cc(SC4CN(C(=O)c5ccccc5-c5ccc(Cl)cc5)C4)ccc3C2=O)C(=O)N1` (stereo not drawn) [GT-03892, 3-(5-((1-(4′-chloro-[1,1′-biphenyl]-2-carbonyl)azetidin-3-yl)thio)-1-oxoisoindolin-2-yl)piperidine-2,6-dione], for which the “substrate protein remaining %” value at IKZF2, on GSPT1, on Wee1, on IKZF1 and at IKZF3 was “A (0%≤ substrate protein remaining % ≤80%)” throughout. Besides, the IC50 is 100 to 500 nM with THP-1, 10 to 50 nM in the experiment on CAL-62 and 10 to 50 nM with CCRF-CEM. Also, the pIC50 in experiment [1] was greater than 6.30.

For `CC1(C)CCC(CN2CCC(Sc3ccc4c(c3)CN(C3CCC(=O)NC3=O)C4=O)C2)=C(c2ccc(Cl)cc2)C1` (stereo not drawn) [GT-04245, 3-(5-((1-((4′-chloro-5,5-dimethyl-3,4,5,6-tetrahydro-[1,1′-biphenyl]-2-yl)methyl)pyrrolidin-3-yl)thio)-1-oxoisoindolin-2-yl)piperidine-2,6-dione], the “substrate protein remaining %” value on IKZF2 and on GSPT1 was “A (0%≤ substrate protein remaining % ≤80%)” throughout. Besides, the IC50 in the experiment on THP-1 lay within 500 to 1000 nM. In experiment [1], the pIC50 was greater than 6.30.

In the case of `O=C1CCC(N2Cc3cc(SC4CCN(C(=O)c5ccccc5-c5ccc(Cl)cc5)CC4)ccc3C2=O)C(=O)N1` (stereo not drawn) [GT-06182, 3-(5-((1-(4′-chloro-[1,1′-biphenyl]-2-carbonyl)piperidin-4-yl)thio)-1-oxoisoindolin-2-yl)piperidine-2,6-dione], the “substrate protein remaining %” value on GSPT1, at Wee1, at CK1α, on IKZF1 and on IKZF3 was “A (0%≤ substrate protein remaining % ≤80%)” in each case. Besides, in the experiment with MM.1S, the IC50 lay within 10 to 50 nM. For the same compound, in experiment [1], the pIC50 was greater than 6.30.

As to `O=C1CCC(N2Cc3cc(OC4CCN(C(=O)c5ccccc5-c5ccc(Cl)cc5)CC4)ccc3C2=O)C(=O)N1` (stereo not drawn) [GT-06204, 3-(5-((1-(4′-chloro-[1,1′-biphenyl]-2-carbonyl)piperidin-4-yl)oxy)-1-oxoisoindolin-2-yl)piperidine-2,6-dione], the “substrate protein remaining %” value at IKZF2, on GSPT1, on CK1α and at IKZF3 was “A (0%≤ substrate protein remaining % ≤80%)” in each case. In the experiment with MM.1S, the IC50 is 10 to 50 nM. Moreover, the negative logarithm of the IC50 (pIC50) in experiment [1] is greater than 6.30.

With `O=C1CCC(N2Cc3cc(SC4CN(C(c5ccccc5F)c5ccccc5F)C4)ccc3C2=O)C(=O)N1` (stereo not drawn) [GT-06758, 3-(5-((1-(bis(2-fluorophenyl)methyl)azetidin-3-yl)thio)-1-oxoisoindolin-2-yl)piperidine-2,6-dione], the “substrate protein remaining %” value on IKZF2, on GSPT1 and at IKZF1 was “A (0%≤ substrate protein remaining % ≤80%)” throughout. Besides, the IC50 with CCRF-CEM was in the range of 50 to 100 nM; with Kasumi-1, 100 to 500 nM; with MV-4-11, 50 to 100 nM. In addition, the negative-log IC50 (pIC50) in experiment [1] was greater than 6.30.

Take `O=C1CCC(N2Cc3cc(SC4CCN(C(c5ccccc5)c5ccccc5)CC4(F)F)ccc3C2=O)C(=O)N1` (stereo not drawn) [GT-06926, 3-(5-((1-benzhydryl-3,3-difluoropiperidin-4-yl)thio)-1-oxoisoindolin-2-yl)piperidine-2,6-dione]: the “substrate protein remaining %” value at IKZF2, on GSPT1, on Wee1, on CK1α, on IKZF1 and on IKZF3 was “A (0%≤ substrate protein remaining % ≤80%)” throughout. Moreover, the IC50 in the experiment on CCRF-CEM was 50 to 100 nM; in the experiment on Kasumi-1 it was 100 to 500 nM; in the experiment on MV-4-11, 10 to 50 nM. The compound further showed a pIC50 in experiment [1] of 5.72 to 6.00.

Turning to `Nc1cccc2c1C(=O)N(C1CCC(=O)NC1=O)C2=O` (stereo not drawn) [pomalidomide, reference compound], the IC50 in the experiment on JEKO-1 was greater than 10000 nM; with THP-1, greater than 10000 nM; in the experiment with MDA-MB-231, greater than 10000 nM; with CAL-62, greater than 10000 nM; with MM.1S, 500 to 1000 nM; with Daudi it was greater than 10000 nM. For the same compound, the IC50 in the experiment with CCRF-CEM, in the experiment on Kasumi-1, in the experiment on MM.1R and in the experiment with MV-4-11 was greater than 10000 nM in each case.
